Ten compounds from patent US7468255B2, “Method for assaying for natural killer, cytotoxic T-lymphocyte and neutrophil-mediated killing of target cells using real-time microelectronic cell sensing technology” (ACEA Biosciences, priority 2002, dated 2008) can be followed below.

Data set [1] deals with A549 cells. It counts as cell-based. The note with it: for effect of inhibitor alone on A549 baseline: A549 target cells without NK cells. How it is done: (§1) In order to observe the kinetics of drug interaction with target cells, A549 non-small lung cancer cells were seeded in ACEA 96× e-plate™ and continuously monitored until the cells reached the log growth phase at which point different concentrations of paclitaxel were added to the cells at the indicated final concentration. […] Remarkably, the cells recover from the initial cytotoxic effect of the drug and start to re-proliferate. While it remains to be determined if this phenomenon is due to metabolism and inactivation of paclitaxel or due to the emergence of paclitaxel-resistant subpopulation, this experiment clearly exemplifies the tremendous advantage of real-time measurement which is offered by the RT-CES system and allows the user to the opportunity to observe and assess the entire history of drug interaction with the target cells which provides further information in addition to cell viability or cytotoxicity. The phenomenon observed in FIG. 20A would've been easily missed by traditional single-point assays such as MTT.
Yet another major advantage of using the RT-CES system to continually monitor the interaction of drugs with target cells is that the user can obtain insight into the mechanism of action of the drug of interest. […] The cells were treated with either DMSO as the vehicle control or with 100 μM Olomoucine which is a CDK inhibitor and induces cell cycle arrest either at G1→S transition or at the G2→M transition, depending on the cell line. […] The control cells treated with DMSO continue to proliferate until they reach confluence, at which time they are contact inhibited and the Cell Index recording levels off. […]. Taken together, using the RT-CES system to dynamically monitor drug interaction with the target cells offers the user the opportunity to understand the mechanism of drug action and its mode of interaction with the target cell.

Data set [2] relates to NK-92-mediated cytolysis of A549 cells. Description: Inhibition of NK-mediated cytolysis of target cells by signaling pathway inhibitors (RT-CES). It counts as cell-based, human. The note with it: NK-92 pre-incubated with inhibitor, E/T 16:1. How it is done: FIG. 31. Specificity of NK-92 mediated cytolysis of target cells. (A) A549 cells were seeded in the wells of E-plates. Twenty four hours after seeding NK-cells at a density of 16:1 (E/T ratio) were pre-incubated with the different concentrations of the MEK inhibitor PD 98059 for thirty minutes and then added to A549 cells at the indicated time point (arrow). The viability of A549 cells were continually monitored using the RT-CES system. (B) The extent of NK-92 mediated cytolystic activity in the presence of MEK inhibitor was calculated at the indicated times post-NK addition as described in materials and methods section. (C) The effect of P13 Kinase inhibitor Wortmannin on NK-92 mediated cytolysis of A549 cells. […] (D) Percent cytolytic activity of NK-92 cells was calculated at the end of the experiment described in (C).
In this example, a microelectronic sensor-based platform, the RT-CES (real time electronic sensing) system, is introduced for label free assessment of natural killer (NK) cell-mediated cytolytic activity. The RT-CES system was used to dynamically and quantitatively monitor NK-mediated cytolysis of 9 different target cell lines, including cancer cell lines commonly used in laboratories. […] Cell growth was dynamically monitored using the RT-CES system for a period of 24-34 hours, depending on the experiment until they reached log growth phase and formed a monolayer. […]

For data set [3], the system named is various cell types (listed in Table 1). The data set can be described thus: RT-CES profiling of dynamic cell responses to anti-cancer drugs. It counts as cell-based. The note with it: for cell index curve pattern: cell lines of Table 1. How it is done: FIGS. 10A and B show the responses of various cell types (listed in Table 1) to olomoucine treatment as monitored using a cell-substrate imepdnace monitoring system of the presnet invention. The cellular responses were continuously monitored at 15 or 30 or 60 minutes time interval before and after treatment with olomoucine. […] Take the treatment of olomoucine at 100 uM as an example. […] The “near-constant” cell index curves were also observed for cells treated with roscovitine, which is another compound causing cell cycle arrest. The cell index curves shown in FIGS. 10A and 10B are strikingly different from the cell index curves shown in FIGS. 9A and 9B, and FIGS. 11A and 11B, where compounds follow different mechanism of compound action.
The cellular responses were continuously monitored at 15 or 30 or 60 minutes time interval before and after treatment with doxorubicin. […] Take the treatment of doxoorubincin at 3.13 uM as an example. For most of cell types tested, initially after the treatment, cell index increased with time in similar way to the cell index from DMSO control wells. After 10-20 hrs, depending on cell type, the cell index reached a peak and started decreasing with time. From that time on, the cell index monotonically decreases. […] Both Doxorubicin and 5-Fluorouacil act on cells through effects on DNA replication or topology.
The cellular responses were continuously monitored at 15 or 30 or 60 minutes time interval before and after treatment with paclitaxel. […] Take the treatment of palitaxel at 0.78-12.5 nM range as examples. […] For one particular cell index curve, after the cell index reached a minimum, it then reversed its decreasing trend and started to increase. […] All these compounds—i.e., paclitaxel, vinblastin and colcemid, are so called mitotic poisons and follow similar mechanism of drug action. For example, both vinblastin and paclitaxel act on microtubule dynamics within a cell.
In this study, we used the RT-CES system to dynamically monitor cancer cell responses to chemotherapeutic compounds with characterized mechanisms, and to profile the specific cell response patterns. Thirteen cancer cell lines including cancers of breast, prostate, lung, colon, ovary, kidney, fibroblast, and central nervous system were tested (Table 1). Each cancer cell type was treated with 11 chemotherapeutic compounds, classified as DNA damaging agents, protein kinase inhibitors, anti-mitotic drugs, cell cycle specific inhibitors, protein synthesis inhibitors plus a compound of unknown category (Table 2). Dynamic and dose dependent cell-compound interaction patterns were characterized and summarized for all the tested cell lines and compounds. The profiles for three drugs, doxorubicin, olomoucine and paclitaxel against a panel of 12 different cell lines are presented in FIGS. 9, 10 and 11, respectively. In addition, we characterized the biological effect of these compounds on cells by monitoring cell cycle progression, cell viability and morphological status of the cells in an attempt to correlate specific cellular response to the shape of the cell index trace (FIGS. 12, 13 and 14). Furthermore we calculated the time-dependent IC-50 values for each compound against the various cell lines (FIG. 15) and developed an algorithm to calculate Cell Change Index to profile the dynamic cell response of the different chemotherapeutic agents across the different cell lines. Cell Change Index was calculated for the dynamic RT-CES responses of different cell lines to different chemotherapeutic agents using the definitions described above. Based on the time-dependent values of CCI, each CCI value region across the time scale is represented by black-white shading-based coding. […]

In a further data set the test system is H460 cells. Description: RT-CES time-dependent cell index of drug-treated H460 cells. It counts as cell-based, human.
Data set [4] has as its system A549 cells. Description: Annexin V staining of A549 cells. It counts as cell-based, Human. The note with it: 12.5 nM for 20 hours. The procedure: FIG. 20. Dynamic monitoring of drug interaction with target cells using a cell-substrate imepdnace monitoring system of the presnet invention. (A) A549 cells were seeded in a device of present invention at a density of 10,000 cells per well and the cells were continuously monitored up to 24 hours at which point paclitaxel was added at the indicated final concentrations. (B) Annexin V staining of A549 cells treated with DMSO or 12.5 nM paclitaxel for 20 hours.
as §1, with “The phenomenon observed in FIG. 20A would've been easily missed by traditional single-point assays such as MTT.” left out

For data set [5], the system named is A549 cells. Description: Flow cytometry cell cycle analysis of A549 cells. It counts as cell-based, Human. The note with it: 100 μM.
The subject of another data set is Cos-7 cells. Description: RT-CES monitoring of morphological changes in Cos-7 cells. It counts as cell-based. The following applies: serum starved Cos-7 cells; 50 nanograms/mL. How it is done:
Cells were seeded in wells of a 16 well monitoring device (16× E-Plate) of the present invention that engaged a device station of a cell-substate monitoring system. The device station was positioned in an incubator held at 37 degrees C. and 5% CO2. The cells were serum starved for 8 hours and then stimulated with 50 nanograms/mL of EGF. […] Impedance was monitored at 3 minute intervals for 2 hours and then at 1 hour intervals for 14 hours. The cell index was calculated by the system and plotted as a function of time. […] The arrow indicates the point of EGF addition.

Procedure for H460 cells: The device was positioned on a device station that was located in an incubator maintaining conditions of 37 degrees C. and 5% CO2. […] The cell-substrate impedance monitoring system calculated the cell index at each time point monitored and plotted the cell index as a function of time.
The device was positioned on a device station that was located in an incubator maintaining conditions of 37 degrees C. and 5% CO2.

In the case of `COc1cccc(-c2cc(=O)c3ccccc3o2)c1N` [PD98059], in the data set with A549 cells [1], the “effect of inhibitor alone on A549 baseline” value was “minimal effect on the baseline”. For the same compound, in data set [2], the “inhibition of NK-92-mediated cytolysis of A549 cells” value is “dose-dependently inhibited”. In the same order, the values of `COC[C@H]1OC(=O)c2coc3c2[C@@]1(C)C1=C(C3=O)[C@@H]2CCC(=O)[C@@]2(C)C[C@H]1OC(C)=O` [Wortmannin] are “minimal effect on the baseline” and “dose-dependently inhibited”. As for `CC[C@]1(O)C[C@@H]2CN(CCc3c([nH]c4ccccc34)[C@@](C(=O)OC)(c3cc4c(cc3OC)N(C)[C@H]3[C@@](O)(C(=O)OC)[C@H](OC(C)=O)[C@]5(CC)C=CCN6CC[C@]43[C@@H]65)C2)C1` [vinblastin], in data set [3], the “cell index curve pattern” value was “going down and then going up”. Turning to `CC(=O)O[C@H]1C(=O)[C@@]2(C)[C@H]([C@H](OC(=O)c3ccccc3)[C@]3(O)C[C@H](OC(=O)[C@H](O)[C@@H](NC(=O)c4ccccc4)c4ccccc4)C(C)=C1C3(C)C)[C@]1(OC(C)=O)CO[C@@H]1C[C@@H]2O` [paclitaxel], in the data set with H460 cells (33 nM), the “time over which cell index exhibited a near-constant value” is listed as “about 15 hours”. The “cell index change after compound addition” value with H460 cells (concentration between 67 nM and 500 nM) is “gradual decrease in cell index”. Also, the “duration of initial decrease in cell index” value in data set [3] (0.78-12.5 nM) fell in the range of 15 to 20 h. For the same compound, the “duration of initial cell index decrease before cell index increase” value in data set [3] (nM concentration, varies between cell types) is given as “about 15 hrs”. Also, in the data set on A549 cells [1] (human), the “effect on A549 cell index” value is given as “initially induces a cytotoxic effect”. In addition, the “Annexin V staining” value in the data set with A549 cells [4] is reported as “cell death”. On to `Cn1cnc2c(NCc3ccccc3)nc(NCCO)nc21` [olomoucine], for which, in data set [3] (100 uM, significant number of cell types tested, for some length of time (10, 20 or 30 hrs)), the cell index response entry is on record as “near-constant cell index”. Further, the “Cell Index trace” value in the data set with A549 cells [1] (exponentially growing A549 cells, 100 μM) was “level off and remain in a steady state”. Besides, in the data set with A549 cells [5], the “cell cycle analysis by flow cytometry” value is “cell cycle arrest at the G2→M transition”.

For epidermal growth factor [EGF], the “cell index response (morphological change)” value with Cos-7 cells was “initial jump in cell index”. On to `CC[C@H](CO)Nc1nc(NCc2ccccc2)c2ncn(C(C)C)c2n1` [roscovitine], for which, in data set [3], the “cell index curve pattern” value is reported as “near-constant”. On the same count and under the same terms, to `CN[C@H]1CCc2cc(OC)c(OC)c(OC)c2-c2ccc(OC)c(=O)cc21` [colcemid] belongs “going down and then going up”. With `COc1cccc2c1C(=O)c1c(O)c3c(c(O)c1C2=O)C[C@@](O)(C(=O)CO)C[C@@H]3O[C@H]1C[C@H](N)[C@H](O)[C@H](C)O1` [doxorubicin], the “time after treatment at which cell index reached a peak and started decreasing” value in data set [3] (3.13 uM, most cell types tested, depending on cell type) was in the range of 10 to 20 h. In the case of `O=c1[nH]cc(F)c(=O)[nH]1` [5-Fluorouracil], the “cell index curve pattern” value in data set [3] is “going up first and then going down”.
